# According to patent US9938301B2, “Dihydropyrimido fused ring derivative as HBV inhibitor” (QILU PHARMACEUTICAL CO., LTD., priority 2014, dated 2018):
# pEC50: −log10 of the molar value. Where two headings read alike, the source gives them in different places.
# System: HBV DNA in HepG2.2.15 cells
# Experiment: HBV in vitro dot-blot hybridization test
# Assay type: cell-based, Hepatitis B virus
# Experimental: • 1. Purpose of the test: • The content of HBV DNA in HepG2.2.15 cells was detected by dot-blot hybridization test to evaluate an inhibitory action of the compound on HBV with an EC50 value as an indicator. • 2. Experimental materials: • 2.1 Cell lines: HepG2.2.15 Cells • HepG2.2.15 cell culture media (DMEM/F12, Invitrogen-11330057; 10% serum Invitrogen-10099141; 100 units/mL Penicillin and 10 μg/mL Streptomycin, Invitrogen-15140122; 1% non-essential amino acid, Invitrogen-11140076; 2 mM L-GLUTAMINE, Invitrogen-25030081; 300 µg/ml Geneticin, Invitrogen-10131027 • 2.2 Reagents: • Trypsin (I Invitrogen-25300062) • DPBS (Hyclone-SH30028.01B) • DMSO (Sigma-D2650-100ML) • 96-well cell-culture plate (Corning-3599) • CO2 incubator (HERA-CELL-240) • 20×SSC (Bio-serve Co. Ltd) • Tris-HCl (Aldirch-154563-1KG) • NaOH (Sinopharm 10019718) • NaCl (Sinopharm 10019308) • Hybridization solution (Major BioTech Co. Ltd, IMMUNE GOLD-HYB-500) • DIG Wash and Block Buffer set (Roche-11585762001) • Anti-digoxigenin-AP, Fab fragments from sheep (Roche-11093274910) • 2.3 Materials and Instruments: • Positively-Charged Nylon Membrane (GE-RPN2250B) • Transfer Membrane Instrument (Bio-Rad, 170-6545) • Hybridization Oven (HL-2000 Hybrilinker) • 3. Testing steps and Methods: • 3.1 HepG2.2.15 cells (4×10^4 cells/well) were planted into a 96-well plate, and at 37° C., 5% CO2 cultured overnight. • 3.2 On Day 2, the compounds were diluted in totally 6 concentrations with a dilution gradient of five times. The compounds at different concentrations were added into the culture wells in duplicate. The final concentration of DMSO in the culture media was 1%. 1 μM GLS4 was used as 100% inhibition control; 1% DMSO as 0% inhibition control. • 3.3 On Day 5, replacing with the fresh culture media containing the compound was performed. • 3.4 On Day 8 and Day 9, the culture media in the culture wells was removed, and the cells were harvested for dot-blot hybridization. • The lysate was added into a culture well, and at 37° C. incubating for half an hour to disintegrate cells; the supernatant was obtained by centrifugation and transferred into a new microplate; a denaturation solution was added, after sufficient mixing the denatured sample was transferred and imprinted onto a Nylon membrane, the nucleic acid was fixed onto the membrane by UV cross-linking. • Pre-hybridization: the membrane was incubated at 60° C. in a hybridization solution for 1 hour. • Hybridization: heating the denatured digoxin-labelled HBV DNA probe and incubating at 60° C. overnight. • Membrane Washing: performing high strigency washing twice, low strigency washing for 3 times. • Blocking: incubating the membrane at room temperature in a blocking solution for 30-60 minutes. • Hybridization: diluting the Antibody Solution with the blocking solution, in which the membrane was placed and incubated at room temperature for 30-60 minutes. • Developing: washing the membrane in a Detection Buffer for 5 minutes, followed by adding a developing solution, pressing and exposing. • The photos was saved in tiff format, and a gray value of the dot was quantified with quantity one software. • 3.5 Data Analysis: • 3.5.1 The inhibition percentage was calculated: % Inh.=[1−(sample dot gray value−1 μM GLS4 dot gray value 1)/(DMSO control dot gray value−1 μM GLS4 dot gray value 1)]×100. • 3.5.2 Calculating EC50: the concentration of the compound for 50% inhibition of HBV (EC50) was calculated by using GraphPad Prism Software. • 4.
# [1] = Hepatitis B virus, HepG2.2.15, dot-blot hybridization assay, read-out: Concentration for 50% inhibition of HBV (EC50)value
# [2] = Hepatitis B virus, HepG2.2.15, summary list of target compounds, Examples 1-165 (same as Table 2), read-out: BIOACTIVITY (inhibitory actions on HBV DNA, EC50)
SMILES,pEC50 [1],pEC50 [2],"pEC50 (Hepatitis B virus, HepG2.2.15, read-out: BIOACTIVITY (inhibitory actions on HBV DNA, EC50), summary list of target compounds, Examples 1-165 (same as Table 2))","pEC50 (dot-blot hybridization assay, read-out: Concentration for 50% inhibition of HBV (EC50)value)","pEC50 (summary list of target compounds, Examples 1-165 (same as Table 2), read-out: BIOACTIVITY (inhibitory actions on HBV DNA, EC50))"
CCOC(=O)C1=C2[C@H](NS(C)(=O)=O)CCN2C(c2nccs2)=N[C@H]1c1ccc(F)cc1Br [Example 147],5.30 to 6.00,5.30 to 6.00,–,–,–
CCOC(=O)C1=C2CC(NC(=O)NC)CN2C(c2nccs2)=N[C@H]1c1ccc(F)cc1Br (some centres unmarked) [Example 52],6.00 to 6.30,6.00 to 6.30,–,–,–
CCOC(=O)C1=C2C[C@@H](CO)CN2C(c2nccs2)=N[C@H]1c1ccc(F)cc1Br [Example 6],> 7.00,> 7.00,–,–,–
CCOC(=O)C1=C2CN(CC(=O)OC)C(=O)CN2C(c2nccs2)=N[C@H]1c1ccc(F)cc1Br [Example 106],5.30 to 6.00,5.30 to 6.00,–,–,–
CCOC(=O)C1=C2C[C@H](NS(C)(=O)=O)CN2C(c2nccs2)=N[C@H]1c1ccc(F)cc1Cl [Example 125],> 7.00,> 7.00,–,–,–
CCOC(=O)C1=C2CN(S(=O)(=O)NC)CCN2C(c2nccs2)=N[C@H]1c1ccc(F)cc1Br [Example 84],6.30 to 7.00,6.30 to 7.00,–,–,–
CCOC(=O)C1=C2CN(Cc3ccc(OC)cc3)CCN2C(c2nccs2)=NC1c1ccc(F)cc1Br (racemic) [Example 97],5.30 to 6.00,5.30 to 6.00,–,–,–
CCOC(=O)C1=C2C[C@@H](CN3CCOCC3)CN2C(c2nccs2)=NC1c1ccc(F)cc1Br (mixture of isomers) [Example 17],5.30 to 6.00,5.30 to 6.00,–,–,–
CCOC(=O)C1=C2C[C@H](NC(=O)OC)CN2C(c2nccs2)=N[C@H]1c1ccc(F)cc1Br [Example 44],> 7.00,> 7.00,–,–,–
CCOC(=O)C1=C2C[C@H](NS(=O)(=O)C(F)(F)F)CN2C(c2nccs2)=N[C@H]1c1ccc(F)cc1Cl [Example 153],> 7.00,> 7.00,–,–,–
CCOC(=O)C1=C2CCCN2C(c2nccs2)=NC1c1ccc(F)c(F)c1 (racemic) [Example 69],6.30 to 7.00,6.30 to 7.00,–,–,–
CCOC(=O)C1=C2CN(C#N)CCN2C(c2nccs2)=N[C@H]1c1ccc(F)cc1Br [Example 101],6.00 to 6.30,6.00 to 6.30,–,–,–
CCOC(=O)C1=C2CN(CC(=O)O)CCN2C(c2nccs2)=N[C@H]1c1ccc(F)cc1Br [Example 99],5.30 to 6.00,5.30 to 6.00,–,–,–
CCOC(=O)C1=C2C[C@H](CN3CCC[C@H]3C(=O)OC)CN2C(c2nccs2)=N[C@H]1c1ccc(F)cc1Br [Example 22],5.30 to 6.00,5.30 to 6.00,–,–,–
CCOC(=O)C1=C2C[C@@H](N3CCOC3=O)CN2C(c2nccs2)=N[C@H]1c1ccc(F)cc1Br [Example 65],6.30 to 7.00,6.30 to 7.00,–,–,–
CCOC(=O)C1=C2C[C@H](c3nnn[nH]3)CN2C(c2nccs2)=N[C@H]1c1ccc(F)cc1Cl [Example 32],5.30 to 6.00,5.30 to 6.00,–,–,–
CCOC(=O)C1=C2C[C@@H](N)CN2C(c2nccs2)=N[C@H]1c1ccc(F)cc1Br [Example 40],5.30 to 6.00,5.30 to 6.00,–,–,–
CCOC(=O)C1=C2C[C@H](NC(=O)C(F)(F)F)CN2C(c2nccs2)=N[C@H]1c1ccc(F)cc1Cl [Example 142],6.30 to 7.00,6.30 to 7.00,–,–,–
CCOC(=O)C1=C2C[C@H](N(C)S(=O)(=O)NC)CN2C(c2nccs2)=N[C@H]1c1ccc(F)cc1Br [Example 56],> 7.00,> 7.00,–,–,–
CCOC(=O)C1=C2C[C@@H](NC(C)=O)CN2C(c2nccs2)=N[C@H]1c1ccc(F)cc1Br [Example 49],6.30 to 7.00,6.30 to 7.00,–,–,–
CCOC(=O)C1=C2C[C@H](N3CCOC3=O)CN2C(c2nccs2)=N[C@H]1c1ccc(F)cc1Br [Example 66],6.30 to 7.00,6.30 to 7.00,–,–,–
CCOC(=O)C1=C2CCCN2C(c2ccsn2)=NC1c1ccc(F)cc1Cl (racemic) [Example 77],5.30 to 6.00,5.30 to 6.00,–,–,–

SMILES,pEC50 [1],pEC50 [2],"pEC50 (Hepatitis B virus, HepG2.2.15, read-out: BIOACTIVITY (inhibitory actions on HBV DNA, EC50), summary list of target compounds, Examples 1-165 (same as Table 2))","pEC50 (dot-blot hybridization assay, read-out: Concentration for 50% inhibition of HBV (EC50)value)","pEC50 (summary list of target compounds, Examples 1-165 (same as Table 2), read-out: BIOACTIVITY (inhibitory actions on HBV DNA, EC50))"
CCOC(=O)C1=C2CN(C(=O)C3COC3)CCN2C(c2nccs2)=N[C@H]1c1ccc(F)cc1Br [Example 118],6.30 to 7.00,6.30 to 7.00,–,–,–
CCOC(=O)C1=C2CN(CC(N)=O)CCN2C(c2nccs2)=NC1c1ccc(F)cc1Br (racemic) [Example 95],6.30 to 7.00,6.30 to 7.00,–,–,–
CCOC(=O)C1=C2CN(C(=O)OC)CCN2C(c2nccs2)=N[C@H]1c1ccc(F)cc1Br [Example 85],6.30 to 7.00,6.30 to 7.00,–,–,–
CCOC(=O)C1=C2C[C@@H](NS(=O)(=O)C(C)C)CN2C(c2nccs2)=N[C@H]1c1ccc(F)cc1Br [Example 116],> 7.00,> 7.00,–,–,–
CCOC(=O)C1=C2CNS(=O)(=O)CN2C(c2nccs2)=N[C@H]1c1ccc(F)cc1Br [Example 135],6.00 to 6.30,–,6.00 to 6.30,–,–
CCOC(=O)C1=C2C[C@H](NC(=O)C3COC3)CN2C(c2nccs2)=N[C@H]1c1ccc(F)cc1Cl [Example 139],5.30 to 6.00,5.30 to 6.00,–,–,–
CCOC(=O)C1=C2C[C@H](NC(=O)OC(C)(C)C)CN2C(c2nccs2)=N[C@H]1c1ccc(F)cc1Br [Example 38],> 7.00,> 7.00,–,–,–
CCOC(=O)C1=C2CN(C)CCN2C(c2nccs2)=NC1c1ccc(F)cc1Br (racemic) [Example 96],5.30 to 6.00,5.30 to 6.00,–,–,–
CCOC(=O)C1=C2CCCCN2C(c2nccs2)=NC1c1ccc(F)cc1Cl (racemic) [Example 109],5.30 to 6.00,5.30 to 6.00,–,–,–
CCOC(=O)C1=C2CN(C(=O)C3CC3)CCN2C(c2nccs2)=N[C@H]1c1ccc(F)cc1Br [Example 91],6.30 to 7.00,6.30 to 7.00,–,–,–
CCOC(=O)C1=C2C[C@@H](NS(=O)(=O)NC)CN2C(c2nccs2)=N[C@H]1c1ccc(F)cc1Br [Example 55],> 7.00,> 7.00,–,–,–
CCOC(=O)C1=C2C[C@H](C(=O)NS(=O)(=O)C(F)(F)F)CN2C(c2nccs2)=N[C@H]1c1ccc(F)cc1F [Example 137],5.30 to 6.00,5.30 to 6.00,–,–,–
CCOC(=O)C1=C2CC(NS(C)(=O)=O)CN2C(c2nccs2)=N[C@H]1c1ccc(F)cc1Br (mixture of isomers) [Example 57],> 7.00,> 7.00,–,–,–
CCOC(=O)C1=C2CC(NC(C)=O)CN2C(c2nccs2)=N[C@H]1c1ccc(F)cc1Br (mixture of isomers) [Example 48],6.30 to 7.00,6.30 to 7.00,–,–,–
COC(=O)C1=C2C[C@H](NS(C)(=O)=O)CN2C(c2nccs2)=N[C@H]1c1ccc(F)cc1Cl [Example 149],> 7.00,> 7.00,–,–,–
CCOC(=O)C1=C2C[C@@H](N(C)S(C)(=O)=O)CN2C(c2nccs2)=N[C@H]1c1ccc(F)cc1Br [Example 127],> 7.00,> 7.00,–,–,–
CCOC(=O)C1=C2C[C@H](NS(C)(=O)=O)CN2C(c2nncs2)=N[C@H]1c1ccc(F)cc1Cl [Example 154],6.30 to 7.00,6.30 to 7.00,–,–,–
CCOC(=O)C1=C2C[C@H](C(N)=O)CN2C(c2nccs2)=N[C@H]1c1ccc(F)cc1Cl [Example 31],6.30 to 7.00,6.30 to 7.00,–,–,–
COC(=O)C1=C2C[C@H](NC(C)=O)CN2C(c2nccs2)=N[C@H]1c1ccc(F)cc1Cl [Example 162],6.30 to 7.00,6.30 to 7.00,–,–,–
CCOC(=O)C1=C2C[C@H](NS(=O)(=O)C(C)C)CN2C(c2nccs2)=N[C@H]1c1ccc(F)cc1Br [Example 117],> 7.00,> 7.00,–,–,–
CCOC(=O)C1=C2C[C@@H](C#N)CN2C(c2nccs2)=NC1c1ccc(F)cc1Br (mixture of isomers) [Example 26],–,–,–,6.00 to 6.30,6.00 to 6.30
